In US5169857A, “7-(polysubstituted pyridyl)-hept-6-endates useful for treating hyperproteinaemia, lipoproteinaemia or arteriosclerosis” (Bayer Aktiengesellschaft, priority 1988, dated 1992):

These compounds were tested against T1, HMG-CoA reductase (3-hydroxy-3-methyl-glutaryl coenzyme A reductase) (Rattus norvegicus, UniProt P51639) (assay: determination of HMG-CoA reductase enzyme activity (rat liver enzyme preparation); relative inhibitory potency vs mevinolin). Details: relative inhibitory potency from IC50 values; IC50 of reference mevinolin set at 1; 20 min preincubation, 60 min at 37° C.
T1 sequence (P51639 1-887): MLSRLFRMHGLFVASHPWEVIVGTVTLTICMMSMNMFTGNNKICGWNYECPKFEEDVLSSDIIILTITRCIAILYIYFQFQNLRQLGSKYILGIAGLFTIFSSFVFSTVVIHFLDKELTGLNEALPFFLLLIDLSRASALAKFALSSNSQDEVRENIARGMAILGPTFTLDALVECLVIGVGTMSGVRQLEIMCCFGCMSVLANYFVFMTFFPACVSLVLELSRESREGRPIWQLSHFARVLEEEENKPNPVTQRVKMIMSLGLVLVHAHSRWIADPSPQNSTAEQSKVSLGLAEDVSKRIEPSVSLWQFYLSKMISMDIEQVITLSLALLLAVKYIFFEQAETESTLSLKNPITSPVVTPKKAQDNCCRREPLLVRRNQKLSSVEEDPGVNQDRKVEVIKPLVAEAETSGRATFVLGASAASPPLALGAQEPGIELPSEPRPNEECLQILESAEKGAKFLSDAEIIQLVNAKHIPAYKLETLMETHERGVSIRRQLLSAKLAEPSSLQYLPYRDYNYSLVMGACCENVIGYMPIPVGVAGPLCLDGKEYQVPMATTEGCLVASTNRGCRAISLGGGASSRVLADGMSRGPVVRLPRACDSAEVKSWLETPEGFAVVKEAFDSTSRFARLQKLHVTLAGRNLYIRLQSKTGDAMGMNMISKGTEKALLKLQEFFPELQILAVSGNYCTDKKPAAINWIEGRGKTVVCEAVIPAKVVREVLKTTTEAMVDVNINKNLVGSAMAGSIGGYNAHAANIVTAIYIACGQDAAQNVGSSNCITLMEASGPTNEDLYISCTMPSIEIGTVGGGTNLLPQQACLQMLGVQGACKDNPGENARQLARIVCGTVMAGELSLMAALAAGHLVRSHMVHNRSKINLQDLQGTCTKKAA
Description: Male Rico rats (body weight 300-400 g) were treated for 11 days with Altromin powdered feed, to which 40 g of colestyramine/kg of feed was added. After decapitation, the liver was removed from the animals and placed on ice. The livers were comminuted and homogenized 3 times in a Potter-Elvejem homogenizer in 3 volumes of 0.1 M saccharose, 0.05 M KCl, 0.04 M Kx Hy phosphate, 0.03 M ethylenediaminetetraacetic acid, 0.002 M dithiothreitol (SPE) buffer pH 7.2. The mixture was subsequently centrifuged for 15 minutes at 15,000* g and the sediment rejected. The supernatant was sedimented for 75 minutes at 100,000 g. The pellet is taken up in 1/4 volume of SPE buffer, homogenized once again and subsequently centrifuged again for 60 minutes at 100,000 g. The pellet is taken up using the 5-fold amount of its volume of SPE buffer, homogenized and frozen and stored at -78° C. (=enzyme solution).
For testing, the test compounds (or mevinolin as a reference substance) were dissolved in dimethylformamide with the addition of 5% by volume of 1 N NaOH and employed in the enzyme test in various concentrations using 10 μl. The test was started after preincubation of the compound with the enzyme at 37° C. for 20 minutes. The test batch was 0.380 ml and contained 4 μmol of glucose-6-phosphate, 1.1 mg of bovine serum albumin, 2.1 μmol of dithiothreitol, 0.35 μmol of NADP, 1 unit of glucose-6-phosphate dehyrogenase 35 μmol of KxHy phosphate PH 7.2, 20 μl of enzyme preparation and 56 nmol of 3x hydroxy-3-methyl-glutarylconenzyme A (glutaryl-3-^14 C) 100,000 dpm.
After incubation for 60 minutes at 37° C., the batch was centrifuged and 600 μl of the supernatant was applied to a 0.7×4 cm column filled with a 5-chloride 100-200 mesh (anion exchanger). It was washed with 2 ml of distilled water and 3 ml of aquasol were added to the runnings plus washing water and counted in the LKB scintillation counter. IC50 values were determined by intrapolation by plotting the percentage inhibition against the concentration of the compound in the test. To determine the relative inhibitory potency, the IC50 value of the reference substance mevinolin was set at 1 and compared with the simultaneously determined IC50 value of the test compound.
In the case of `CCC(C)(C)C(=O)OCc1c(C(C)C)nc(C(C)C)c(/C=C/[C@@H](O)C[C@@H](O)CC(=O)OC)c1-c1ccc(F)cc1` (relative stereo) [Example 70, Methyl erythro-(E)-7-[2,6-diisopropyl-5-(2,2-dimethyl-butyryloxymethyl)-4-(4-fluorophenyl)-pyrid-3-yl]-3,5-dihydroxy-hept-6-enoate], the “Rel. Activity (Mevinolin = 1)” value is reported as 30.
With `COC(=O)C[C@H](O)C[C@H](O)/C=C/c1c(C(C)C)nc(C(C)C)c(COC(C)=O)c1-c1ccc(F)cc1` (relative stereo) [Example 72, methyl erythro-(E)-7-[3-acetoxymethyl-2,6-diisopropyl-4-(4-fluorophenyl)-pyrid-5-yl]-3,5-dihydroxy-hept-6-enoate] the “Rel. Activity (Mevinolin = 1)” value was 17.
In the case of `COC(=O)C[C@H](O)C[C@H](O)/C=C/c1c(C(C)C)nc(C(C)C)c(COCc2ccccc2)c1-c1ccc(F)cc1` (relative stereo) [Example 17, Methyl erythro-(E)-7-[3-benzyloxymethyl-2,6-diisopropyl-4-(4-fluorophenyl)-pyrid-5-yl]-3,5-dihydroxy-hept-6-enoate], the “Rel. Activity (Mevinolin = 1)” value is reported as 20.
With `COC(=O)C[C@H](O)C[C@H](O)/C=C/c1c(C(C)C)nc(C(C)C)c(CN2CCOCC2)c1-c1ccc(F)cc1` (relative stereo) [Example 105, Methyl erythro-(E)-7-[2,6-diisopropyl-4-(4-fluorophenyl)-5-morpholinomethyl-pyrid-3-yl]-3,5-dihydroxy-hept-6-enoate] the “Rel. Activity (Mevinolin = 1)” value was 4.
For `COCc1c(C2CC2)nc(C(C)C)c(/C=C/[C@@H](O)C[C@@H](O)CC(=O)OC)c1-c1ccc(F)cc1` (relative stereo) [Example 85, Methyl erythro-(E)-7-[6-cyclopropyl-2-isopropyl-4-(4-fluorophenyl)-5-methoxymethyl-pyrid-3-yl]-3,5-dihydroxy-hept-6-enoate], the “Rel. Activity (Mevinolin = 1)” value was 20.
With `CCOC(=O)c1c(C(C)C)nc(C(C)C)c(/C=C/[C@@H](O)C[C@@H](O)CC(=O)OC)c1-c1ccc(F)cc1` (relative stereo) [Example 100, Methyl erythro-(E)-7-[2,6-diisopropyl-4-(4-fluorophenyl)-5-carboxyethyl-pyrid-3-y]-3,5-dihydroxy-hept-6-enoate] the “Rel. Activity (Mevinolin = 1)” value was 30.
`COC(=O)C[C@H](O)C[C@H](O)/C=C/c1c(C(C)C)nc(C(C)C)c(COc2ccccc2)c1-c1ccc(F)cc1` (relative stereo) [Example 89, Methyl erythro-(E)-7-[2,6-diisopropyl-4-(4-fluorophenyl)-5-phenoxymethyl-pyrid-3-yl]-3,5-dihydroxy-hept-6-enoate] was tested, and the “Rel. Activity (Mevinolin = 1)” value was 10.
With `COC(=O)C[C@H](O)C[C@H](O)/C=C/c1c(-c2ccc(F)cc2)nc(C)c(C#N)c1C(C)C` (relative stereo) [Example 139, Methyl erythro-(E)-7-[5-cyano-2-(4-fluorophenyl)-4-isopropyl-6-methyl-pyrid-3-yl]-3,5-dihydroxy-hept-6-enoate] the “Rel. Activity (Mevinolin = 1)” value was 20.
`COC(=O)C[C@H](O)C[C@H](O)/C=C/c1c(C(C)C)nc(C(C)C)c(CSCc2ccccc2)c1-c1ccc(F)cc1` (relative stereo) [Example 107, Methyl erythro-(E)-7-[2,6-diisopropyl-4-[4-fluorophenyl)-5-benzylthio-methyl-pyrid-3-yl]-3,5-dihydroxy-hept-6-enoate] was tested, and the “Rel. Activity (Mevinolin = 1)” value was 3.
In the case of `COC(=O)C[C@H](O)C[C@H](O)/C=C/c1c(C(C)C)nc(C(C)C)c(-c2ccccc2)c1-c1ccc(F)cc1` (relative stereo) [Example 99], the “Rel. Activity (Mevinolin = 1)” value is reported as 20.

Each compound was assayed on serum cholesterol (assay: subchronic action on the blood cholesterol values of dogs in feeding experiments). Details: 8 mg/kg p.o. daily for 2 weeks; beagle dogs; colestyramine 4 g/100 g of feed throughout; vs values before administration.
Type: in vivo
Description: The subchronic action of the compounds according to the invention on the blood cholesterol values of dogs was tested in feeding experiments of several weeks duration. For this, the substance to be investigated was given p.o. once daily in a capsule to healthy beagle dogs together with the feed over a period of time lasting several weeks. Colestyramine (4 g/100 g of feed) as the […] sequestrant was additionally admixed in the feed during the entire experimental period, i.e. before, during and after the administration period of the substances to be investigated. Venous blood was taken from the dogs twice weekly and the serum cholesterol was determined enzymatically using a commercial test kit. The serum cholesterol values during the administration period were compared with the serum cholesterol values before the administration period (controls).
In the case of `COC(=O)C[C@H](O)C[C@H](O)/C=C/c1c(C(C)C)nc(C(C)C)c(COCc2ccccc2)c1-c1ccc(F)cc1` (relative stereo) [Example 17, Methyl erythro-(E)-7-[3-benzyloxymethyl-2,6-diisopropyl-4-(4-fluorophenyl)-pyrid-5-yl]-3,5-dihydroxy-hept-6-enoate], the “lowering of the serum cholesterol” value is reported as “about 66%”.
